Here are results for 16 compounds from US11802111B2, “Cyclobutyl amide monoacylglycerol lipase modulators” (Janssen Pharmaceutica NV, priority 2020, dated 2023).

Each structure is given as a SMILES string.

Sequence of human MGL from HeLa cells (Q99685 whole entry): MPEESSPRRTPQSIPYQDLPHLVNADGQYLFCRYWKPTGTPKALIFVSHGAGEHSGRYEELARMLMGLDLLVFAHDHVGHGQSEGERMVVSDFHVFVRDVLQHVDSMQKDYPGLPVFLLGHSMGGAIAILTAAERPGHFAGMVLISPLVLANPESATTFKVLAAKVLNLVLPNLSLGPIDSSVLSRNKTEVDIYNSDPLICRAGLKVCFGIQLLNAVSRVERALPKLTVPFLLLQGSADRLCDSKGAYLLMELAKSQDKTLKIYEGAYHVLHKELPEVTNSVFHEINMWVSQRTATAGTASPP

The assay concerns the target human MGL from HeLa cells (Homo sapiens (Human), UniProt Q99685). In words: MGL in vitro activity assay ([glycerol-1,3-3H]-oleoyl glycerol hydrolysis, activated carbon filtration). The format is biochemical. Particulars: 300 nM [Glycerol-1,3-3H]-oleoyl glycerol, one hour. In a few lines: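 Activity measured as tritium in the flow-through after activated carbon filtration of a 1 h reaction containing 300 nM 3H-oleoyl glycerol, compound and HeLa-derived human MGL. Compounds screened at 10 μM; IC50 series start at an empirically chosen highest concentration.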
For orientation: IC50 means the concentration needed to halve the response being measured. For the compound `CC[C@]1(O)C[C@@H](C(=O)N2CC3(CCC(Oc4ccc(C)c(C(F)(F)F)n4)CC3)C2)C1` [Example 452, ((1r,3s)-3-Ethyl-3-hydroxycyclobutyl)(7-((5-methyl-6-(trifluoromethyl)pyridin-2-yl)oxy)-2-azaspiro[3.5]nonan-2-yl)methanone], the IC50 turned out to be 20 nM.

In the case of `CCc1cc(OC)cc(C2CCC3(CC2)CN(C(=O)[C@H]2C[C@@](C)(O)C2)C3)c1` [Example 145, (7-(3-Ethyl-5-methoxyphenyl)-2-azaspiro[3.5]nonan-2-yl)((1s,3s)-3-hydroxy-3-methylcyclobutyl)methanone], 31 nM corresponded to half-maximal inhibition (IC50).

In the case of `CCC1(Oc2ccc(C(F)(F)F)cn2)CCC2(CC1)CN(C(=O)[C@H]1C[C@@](C)(O)C1)C2` [Example 420, (7-Ethyl-7-((5-(trifluoromethyl)pyridin-2-yl)oxy)-2-azaspiro[3.5]nonan-2-yl)((1s,3s)-3-hydroxy-3-methylcyclobutyl)methanone], 33 nM corresponded to half-maximal inhibition (IC50).

`CCc1ccccc1CC1CC2(C1)CN(C(=O)[C@H]1C[C@@](C)(O)C1)C2` [Example 158, (6-(2-Ethylbenzyl)-2-azaspiro[3.3]heptan-2-yl)((1s,3s)-3-hydroxy-3-methylcyclobutyl)methanone] returned a 50% inhibitory concentration (IC50) of 9.2 nM.

Take `C[C@H](c1ccccc1)C1CC2(C1)CN(C(=O)[C@H]1C[C@@](C)(O)C1)C2` (stereo in doubt) [Example 311, ((1s,3*R)-3-Hydroxy-3-methylcyclobutyl)(6-((*S)-1-phenylethyl)-2-azaspiro[3.3]heptan-2-yl)methanone]: the IC50 was 77 nM.

`Cc1ccc([C@@H]2CCC3(C2)CN(C(=O)[C@H]2C[C@@](C)(O)C2)C3)c(C)c1` (stereo in doubt) [Example 322, ((*R)-6-(2,4-Dimethylphenyl)-2-azaspiro[3.4]octan-2-yl)((1s,3*S)-3-hydroxy-3-methylcyclobutyl)methanone] had an IC50 of 64 nM.

Take `Cc1ccc(F)cc1C1CCC2(CC1)CN(C(=O)[C@H]1C[C@@](C)(O)C1)C2` [Example 358, (7-(5-Fluoro-2-methylphenyl)-2-azaspiro[3.5]nonan-2-yl)((1s,3s)-3-hydroxy-3-methylcyclobutyl)methanone]: inhibition was half-maximal at 29 nM (IC50).

As for `CCc1cnc(OC2CCC3(CC2)CN(C(=O)[C@H]2C[C@@](C)(O)C2)C3)c(F)c1` [Example 433, (7-((5-Ethyl-3-fluoropyridin-2-yl)oxy)-2-azaspiro[3.5]nonan-2-yl)((1s,3s)-3-hydroxy-3-methylcyclobutyl)methanone], the half-maximal inhibitory concentration (IC50) amounted to 14 nM.

With `CCc1cc(C2CCC3(C2)CN(C(=O)[C@H]2C[C@@](C)(O)C2)C3)ccc1Cl` (mixture of isomers) [Example 15, (rac)-(6-(4-Chloro-3-ethylphenyl)-2-azaspiro[3.4]octan-2-yl)((1s,3s)-3-hydroxy-3-methylcyclobutyl)methanone], the IC50 is 6 nM.

As for `Cc1cn(C)c2nc(CC3CC4(C3)CN(C(=O)[C@H]3C[C@@](C)(O)C3)C4)ccc12` [Example 291, (6-((1,3-Dimethyl-1H-pyrrolo[2,3-b]pyridin-6-yl)methyl)-2-azaspiro[3.3]heptan-2-yl)((1s,3s)-3-hydroxy-3-methylcyclobutyl)methanone], half-maximal inhibition (IC50) was put at 3.8 nM.

`COc1cc([C@H]2CCC3(C2)CN(C(=O)[C@H]2C[C@@](C)(O)C2)C3)ccc1C` (stereo in doubt) [Example 19, ((1s,3*R)-3-Hydroxy-3-methylcyclobutyl)((*S)-6-(3-methoxy-4-methylphenyl)-2-azaspiro[3.4]octan-2-yl)methanone]: the midpoint of inhibition, the IC50, lay at 67 nM.

`COc1ccc(C2CCC3(CC2)CN(C(=O)[C@H]2C[C@@](C)(O)C2)C3)cc1C1CC1` [Example 142, (7-(3-Cyclopropyl-4-methoxyphenyl)-2-azaspiro[3.5]nonan-2-yl)((1s,3s)-3-hydroxy-3-methylcyclobutyl)methanone]: the concentration for half-maximal inhibition (IC50) was determined as 121 nM.

Turning to `Cc1cc(OC2CCC3(CC2)CN(C(=O)[C@H]2C[C@@](C)(O)C2)C3)nc2c1ccn2C` [Example 470, (7-((1,4-Dimethyl-1H-pyrrolo[2,3-b]pyridin-6-yl)oxy)-2-azaspiro[3.5]nonan-2-yl)((1s,3s)-3-hydroxy-3-methylcyclobutyl)methanone], the half-maximal inhibitory concentration (IC50) worked out at 11 nM.

`Cc1cc(OC2CC3(C2)CN(C(=O)[C@H]2C[C@@](C)(O)C2)C3)ccc1C(F)(F)F` [Example 247, ((1s,3s)-3-Hydroxy-3-methylcyclobutyl)(6-(3-methyl-4-(trifluoromethyl)phenoxy)-2-azaspiro[3.3]heptan-2-yl)methanone] gave an IC50 of 14 nM.

In the case of `Cc1ccc(CC2CC3(C2)CN(C(=O)[C@H]2C[C@@](C)(O)C2)C3)nc1C(F)(F)F` [Example 277, ((1s,3s)-3-Hydroxy-3-methylcyclobutyl)(6-((5-methyl-6-(trifluoromethyl)pyridin-2-yl)methyl)-2-azaspiro[3.3]heptan-2-yl)methanone], the IC50 was 18 nM.

`Cc1ccc(OC2CCC3(CC2)CN(C(=O)[C@H]2C[C@@](C)(O)C2)C3)nc1C` [Example 428, (7-((5,6-Dimethylpyridin-2-yl)oxy)-2-azaspiro[3.5]nonan-2-yl)((1s,3s)-3-hydroxy-3-methylcyclobutyl)methanone]: it took 47 nM to reach half-maximal inhibition (IC50).
